Measured values: ChEMBL document CHEMBL3108668, “Antitumor activity of jujuboside B and the underlying mechanism via induction of apoptosis and autophagy” (J Nat Prod, 2014)
Activity calls are given as the source filed them. No cut-off for these calls is given here.

Test system: AGS
Experiment: Induction of apoptosis in human AGS cells assessed as increase in pp38 level at 100 uM after 24 hrs by Western blotting analysis in presence of bafilomycin A1
Type: functional, cell-based

In the case of `CC(C)=C[C@H]1C[C@](C)(O)[C@@H]2[C@H]3CC[C@@H]4[C@@]5(C)CC[C@H](O[C@@H]6OC[C@H](O)[C@H](O[C@@H]7O[C@H](CO)[C@@H](O)[C@H](O)[C@H]7O[C@@H]7OC[C@@H](O)[C@H](O)[C@H]7O)[C@H]6O[C@@H]6O[C@@H](C)[C@H](O)[C@@H](O)[C@H]6O)C(C)(C)[C@@H]5CC[C@@]4(C)[C@@]34CO[C@@]2(C4)O1`, the Activity is reported as “Active”.
